# Tested on: tyrosine hydroxylase
# Assay: Striatal and nigral TH-like immunoreactivity after MPTP (immunocytochemistry)
# Assay type: in vivo, mice
# Conditions: AME 25 mg/kg p.o., MPTP 25 mg/kg i.p. x7 days
# Protocol: AME (25 mg/kg, p.o) administration was started 4 days (twice daily) before the first injection of MPTP and continued for 7 consecutive days (once a day). MPTP was injected (25 mg/kg, i.p) once a day 1 h after AME treatment for consecutive 7 days.
# Animals were sacrificed at 3 days after final MPTP-treatment. They were anesthetized with 60% urethane and perfused transcardially with 200 ml of 50 mM phosphate buffered saline (PBS), followed by 50 ml of paraformaldehyde in PBS. The brain were fixed at 4° C. for 24 h in the same fixative and then cryoprotected in 30% sucrose. The brains were sectioned on a horizontal sliding microstome into 35 μm transverse free-floating sections. The immunocytochemistry was performed as described previously (Kim et al., 2000a; Kim et al., 2000b). Briefly, prior to incubation with the primary antibodies, sections were preincubated with 0.3% hydrogen peroxide in PBS for 30 min (to block endogenous peroxidase activity), then in PBS containing 0.4% Triton X-100 for 20 min and 1% normal serum for 20 min. […] The quantitative analyses were performed using a computer-based image analysis system (Optimas version 6.2; Neurolucida Program) (Kim et al., 1999).
structure (smiles),measurement,setting,value
"CC(=O)Oc1ccccc1C(=O)Oc1c(C)occc1=O [AME, 3-(2-methyl-4-pyronyl)-2-acetyloxybenzoate]",effect on MPTP-induced decrease in striatal TH-IR,striatum,significantly attenuated these decreases in TH-IR
same,effect on MPTP-induced decrease in substantia nigra TH-IR,substantia nigra,significantly attenuated these decreases in TH-IR

# — US20120328696A1, “ANTI-PARKINSONIAN COMPOUND ACETYLSALICYLIC ACID MALTOL ESTER” (Hutecs Korea Pharmaceutical Co., Ltd., priority 2008, published 2012)
